Measurements published in US4148795A, “Dithiocarbamate ester bactericides and fungicides” (American Cyanamid Company, priority 1976, dated 1979).
Where “and” joins values, the source holds several entries; their conditions need not be identical. Equal values may be shown once. Read-outs that look alike come from different tables or passages of the source.

Columns and labels:
Aspergillus niger [1] = assay: Spore germination inhibition; format: cell-based; conditions: 24 hours
Summary of the method: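 Test compound is suspended in water at 100, 10 or 1 ppm. and dispensed into one dram "opticlear" vials. Each vial receives one drop of a spore suspension taken from seven-day Aspergillus niger cultures grown on potato-dextrose agar. Capped vials rotate on a tumbler for 24 hours, then are inspected for inhibition of mycelial growth.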

Monilinia fructicola [2] = assay: Spore germination inhibition; format: cell-based; conditions: for inhibition at 1 ppm / inhibition at 10 ppm: 24 hours; for inhibition at 100 ppm: 24 h, read-out: % Inhibition of Spore Germination
Summary of the method: (§1)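 Test compounds were suspended in water at 100, 10 or 1 ppm and inoculated with spore suspensions from 7-day (A. niger) or 14-day potato-dextrose agar cultures. Vials were tumbled for 24 hours and then examined for inhibition of mycelial growth.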

[3] = test system: Stemphylium sarcinaeforme; assay: Spore germination inhibition; format: cell-based; conditions: Stemphylium sarciniforme; for inhibition at 100 ppm: 24 h, read-out: % Inhibition of Spore Germination; for inhibition at 1 ppm / inhibition at 10 ppm: 24 hours
Summary of the method: as §1

Aerobacter aerogenes = format: cell-based; conditions: 100 ppm; subcultures 72 hours at 37° C; also: key: 0: No Effect; 9: Kill of Bacteria; 5: Stasis, but not Kill of all Bacteria
Staphylococcus aureus = format: cell-based; conditions: 100 ppm; subcultures 72 hours at 37° C; also: key: 0: No Effect; 9: Kill of Bacteria; 5: Stasis, but not Kill of all Bacteria
Xanthomonas vesicatoria = format: cell-based; conditions: 100 ppm; subcultures 72 hours at 37° C; also: key: 0: No Effect; 9: Kill of Bacteria; 5: Stasis, but not Kill of all Bacteria
Aspergillus niger [4] = assay: Agar dilution plate; format: cell-based; conditions: An; 100 ppm, 72 hours at 23° C
Summary of the method: (§2)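 Growth ratings of 0 (no control) or 5 (100% effectiveness) were assigned after about 72 hours at 23° C on inoculated Sabouraud's dextrose agar containing roughly 100 ppm of the active ingredient. Each test was run twice more.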

Fusarium lycopersici = assay: Agar dilution plate; format: cell-based; conditions: Fl; 100 ppm, 72 hours at 23° C
Summary of the method: as §2

Monilinia fructicola [5] = assay: Agar dilution plate; format: cell-based; conditions: Mf; 100 ppm, 72 hours at 23° C
Summary of the method: as §2

Pythium de Baryanum = assay: Agar dilution plate; format: cell-based; conditions: Pd; 100 ppm, 72 hours at 23° C
Summary of the method: as §2

Rhizoctonia solani = assay: Agar dilution plate; format: cell-based; conditions: Rs; 100 ppm, 72 hours at 23° C
Summary of the method: as §2

[6] = test system: Stemphylium sarcinaeforme; assay: Agar dilution plate; format: cell-based; conditions: Ss; 100 ppm, 72 hours at 23° C
Summary of the method: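 Compound incorporated into Sabouraud's dextrose agar at about 100 ppm, inoculated with Stemphylium sarcinaeforme and incubated about 72 hours at 23 °C. Growth scored 0 (no control) or 5 (100% effectiveness), test run in repeat.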

Pseudomonas solaracaerum = format: cell-based; conditions: 100 ppm, 72 hours at 23° C; also: key: 0: no control; 5: 100% effectiveness of the test compound against the specified organism
[7] = test system: Collectotrichum lagenarium; assay: Agar dilution plate; format: cell-based; conditions: Cl; 100 ppm, 72 hours at 23° C
Summary of the method: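 Compounds were incorporated at about 100 ppm in Sabouraud's dextrose agar, inoculated, and incubated about 72 h at 23 °C. Growth was scored 0 (no control) or 5 (100% effectiveness), and the test was repeated twice.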

Verticillium albo-atrum = assay: Agar dilution plate; format: cell-based; conditions: Va; 100 ppm, 72 hours at 23° C
Summary of the method: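 Compounds incorporated at about 100 ppm into Sabouraud's dextrose agar, then inoculated with the fungus and incubated about 72 hours at 23° C. Growth scored as 0 (no control) or 5 (100% effectiveness); test repeated twice.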

[8] = test system: Colletotrichum lagenarium; conditions: in vivo; also: key: 5: clean, no disease; 4: trace of disease; 3: slight disease; 2: moderate disease; 1: severe disease; 0: like controls
Phytophthora infestans = format: in vivo; parameters: scale not given here; conditions: Tomato Late Blight, five days
Piricularia oryzae = format: in vivo; parameters: scale not given here; conditions: Rice Blast, five days
Venturia inaequalis [9] = conditions: in vivo
Venturia inaequalis [10] = assay: Apple scab on field-grown trees; format: in vivo; conditions: 50% wettable powder
Excerpt: Apple Scab (Venturia inaequalis)
(§3) The compound of Example 13 was applied as a foliar spray for ten applications at weekly intervals from May 1 through July 2, and then two more sprays on a two-week schedule ending on July 31.
(§4) The active compound was applied as a 50% wettable powder having the following composition:
50% Active Compound (Example 13 )
(§5) Rates of 50% wettable applied were:
(§6) 2 pounds/100 gallons of water
(§7) 1 pound/100 gallons of water
(§8) Three tree replicates of each rate
(§9) Variety: Red Delicious were used.

[11] = test system: Red Delicious apple trees; assay: Phytotoxicity on field-grown apple trees; format: in vivo; conditions: 50% wettable powder, 2 and 1 pounds/100 gallons of water
Excerpt: as §3, §4, §5, §6, §7, §8, §9

| SMILES | inhibition at 1 ppm (Aspergillus niger [1]) [%] | inhibition at 10 ppm (Aspergillus niger [1]) [%] | inhibition at 100 ppm (Aspergillus niger [1]) [%] | inhibition at 1 ppm (Monilinia fructicola [2]) [%] | Antibacterial Activity rating (Aerobacter aerogenes) | Antibacterial Activity rating (Staphylococcus aureus) | Antibacterial Activity rating (Xanthomonas vesicatoria) | Agar Dilution Plate rating (Aspergillus niger [4]) | Agar Dilution Plate rating (Fusarium lycopersici) | Agar Dilution Plate rating (Monilinia fructicola [5]) | Agar Dilution Plate rating (Pythium de Baryanum) | Agar Dilution Plate rating (Rhizoctonia solani) | Agar Dilution Plate rating [6] | Agar Dilution Plate rating (Pseudomonas solaracaerum) | Agar Dilution Plate rating [7] | Agar Dilution Plate rating (Verticillium albo-atrum) | disease control index [8] | disease control index (Piricularia oryzae; 150 ppm) | disease control index (Piricularia oryzae; 300 ppm) | disease control index (Venturia inaequalis [9]) | also measured |
| --- | --- | --- | --- | --- | --- | --- | --- | --- | --- | --- | --- | --- | --- | --- | --- | --- | --- | --- | --- | --- | --- |
| CN(C)C(=S)SC(C[N+](=O)[O-])c1ccc2c(c1)OCO2 (stereo not drawn) [Example 28, 3,4-(Methylenedioxy)-α-(nitromethyl)benzyl Dimethyldithiocarbamate] | 100 | 100 | 100 | 100 | 9 | 5 | 5 | 0 | 0 | 5 (100% effectiveness of the test compound against the specified organism) | 5 (100% effectiveness of the test compound against the specified organism) | 0 | 5 (100% effectiveness of the test compound against the specified organism) | 0 | 5 (100% effectiveness of the test compound against the specified organism) | 5 (100% effectiveness of the test compound against the specified organism) | 5 | 0 | 0 | 5 and 0 | inhibition at 10 ppm (Monilinia fructicola [2]): 100%; inhibition at 100 ppm (Monilinia fructicola [2]): 100%; inhibition at 100 ppm [3]: 100%; inhibition at 1 ppm [3]: 0%; inhibition at 10 ppm [3]: 0%; disease control index (Phytophthora infestans; at 100 ppm): 5; disease control index (Phytophthora infestans; at 500 ppm): 5; disease control index (Piricularia oryzae; 600 ppm): 5; disease control index (Piricularia oryzae; 1200 ppm): 5 |
| CC(C(SC(=S)N(C)C)c1ccccc1)[N+](=O)[O-] (stereo not drawn) [Example 18, α-(1-Nitroethyl)benzyl Dimethyldithiocarbamate] |  |  |  |  | 0 | 5 | 0 | 0 | 5 (100% effectiveness of the test compound against the specified organism) | 5 (100% effectiveness of the test compound against the specified organism) | 5 (100% effectiveness of the test compound against the specified organism) | 5 (100% effectiveness of the test compound against the specified organism) | 5 (100% effectiveness of the test compound against the specified organism) | 0 | 5 (100% effectiveness of the test compound against the specified organism) | 5 (100% effectiveness of the test compound against the specified organism) | 5 |  |  | 5 | disease control index (Phytophthora infestans; at 100 ppm): 5; disease control index (Phytophthora infestans; at 500 ppm): 5; disease control index (Piricularia oryzae; at 100 ppm): 5; disease control index (Piricularia oryzae; at 500 ppm): 5 |
| CN(C)C(=S)SC(c1ccc(Cl)cc1Cl)C(C(c1ccc(Cl)cc1Cl)N(C)C)[N+](=O)[O-] (centres unmarked) [Example 8, 1,3-Bis(2,4-dichlorophenyl)-3-dimethylamino-2-nitropropyl Dimethyldithiocarbamate] |  |  |  |  | 0 | 5 | 0 | 0 | 0 | 5 (100% effectiveness of the test compound against the specified organism) | 0 | 0 | 0 | 0 | 0 | 5 (100% effectiveness of the test compound against the specified organism) | 5 |  |  | 5 and 4 | disease control index (Phytophthora infestans; at 100 ppm): 5; disease control index (Phytophthora infestans; at 500 ppm): 5; disease control index (Piricularia oryzae; at 100 ppm): 5; disease control index (Piricularia oryzae; at 500 ppm): 5 |
| CN(C)CC(C)(CSC(=S)N(C)C)[N+](=O)[O-] (centres unmarked) [Example 7, 3-Dimethylamino-2-methyl-2-nitropropyl Dimethyldithiocarbamate] | 0 | 100 | 100 | 0 | 9 | 9 | 5 | 0 | 0 | 5 (100% effectiveness of the test compound against the specified organism) | 0 | 5 (100% effectiveness of the test compound against the specified organism) | 5 (100% effectiveness of the test compound against the specified organism) | 0 | 5 (100% effectiveness of the test compound against the specified organism) | 5 (100% effectiveness of the test compound against the specified organism) | 2 | 2 | 2 | 5 and 0 | inhibition at 10 ppm (Monilinia fructicola [2]): 100%; inhibition at 100 ppm (Monilinia fructicola [2]): 100%; inhibition at 100 ppm [3]: 0%; disease control index (Piricularia oryzae; 600 ppm): 4; disease control index (Piricularia oryzae; 1200 ppm): 5 |
| CN(C)C(=S)SC(C[N+](=O)[O-])c1ccccc1 (stereo not drawn) [Example 13, α-(Nitromethyl)benzyl Dimethyldithiocarbamate] | 100 | 100 | 100 | 100 | 5 | 5 | 5 | 0 | 5 (100% effectiveness of the test compound against the specified organism) | 5 (100% effectiveness of the test compound against the specified organism) | 5 (100% effectiveness of the test compound against the specified organism) | 0 | 5 (100% effectiveness of the test compound against the specified organism) | 0 | 5 (100% effectiveness of the test compound against the specified organism) | 5 (100% effectiveness of the test compound against the specified organism) | 5 | 5 | 5 | 5 | inhibition at 10 ppm (Monilinia fructicola [2]): 100%; inhibition at 100 ppm (Monilinia fructicola [2]): 100%; inhibition at 100 ppm [3]: 100%; inhibition at 1 ppm [3]: 100%; inhibition at 10 ppm [3]: 100%; disease control index (Phytophthora infestans; 150 ppm): 5; disease control index (Phytophthora infestans; 300 ppm): 5; disease control index (Phytophthora infestans; 600 ppm): 5; disease control index (Phytophthora infestans; 1200 ppm): 5; disease control index (Piricularia oryzae; 600 ppm): 5; disease control index (Piricularia oryzae; 1200 ppm): 5; scab on trees (Venturia inaequalis [10]; 1 pound/100 gallons of water, end of season): trace of scab; scab on trees (Venturia inaequalis [10]; 2 pounds/100 gallons of water, all season): free of scab all season long; phytotoxicity [11]: No phytotoxicity |
| O=[N+]([O-])CC(SC(=S)N1CCCCC1)c1ccccc1 (stereo not drawn) [Example 16, α-(Nitromethyl)benzyl 1-Piperidinecarbodithioate] |  |  |  |  |  |  |  |  |  |  |  |  |  |  |  |  | 5 | 5 | 5 | 5 |  |
